Test results: patent US6855513B1 (priority 1999, dated 2005)

Key:
[1] = system: qsc111 (Pyoverdine synthetase D); assay: Acyl-HSL induction of β-galactosidase in qsc111 mutant; format: cell-based, Pseudomonas aeruginosa; conditions: qsc111, Class II; 3OC12-HSL 2 μM, C4-HSL 5 μM
[2] = system: qsc116; assay: Acyl-HSL induction of β-galactosidase in qsc116 mutant; format: cell-based, Pseudomonas aeruginosa; conditions: qsc116, Class II; 3OC12-HSL 2 μM, C4-HSL 5 μM
[3] = system: qsc130 (glc operon transcriptional activator); assay: Acyl-HSL induction of β-galactosidase in qsc130 mutant; format: cell-based, Pseudomonas aeruginosa; conditions: qsc130, Class III; 3OC12-HSL 2 μM, C4-HSL 5 μM
[4] = system: qsc103; assay: Acyl-HSL induction of β-galactosidase in qsc103 mutant; format: cell-based, Pseudomonas aeruginosa; conditions: qsc103, Class I; 3OC12-HSL 2 μM, C4-HSL 5 μM
[5] = system: quorum sensing signaling (Las system), QSC102 lacZ; assay: Two-strain (PAO1 / QSC102) screening assay for quorum sensing inhibiting compounds; format: cell-based, Pseudomonas aeruginosa; conditions: β-galactosidase / blue color on X-gal
Description: In this example, the screening assay used two strains of P. aeruginosa: a wild type P. aeruginosa (PAO1) and QSC102, from Example 1 (see FIG. 8). This assay will detect inhibition of all aspects of quorum sensing signaling, e.g., signal generation and signal reception.
Microtiter plates are prepared by adding 200 μL Luria Broth (“LB”) agar, containing 0.008% 5-bromo-4-chloro-3-indolyl-β-D-galactose (X-gal) to each well. Overnight cultures of PAO1 and QSC102 are subcultured in LB to a starting absorbance at 600 nm (“A600”) of 0.05 and grown at 37° C to an A600 of 1.0. PAO1 is diluted 2.5×10^5-fold in LB and 5 μL of this is applied to the surface of the LB agar in each well. Plates are then dried in a laminar flow hood for 60 minutes. A tenfold dilution of QSC102 in LB is used to inoculate each well using a replicator. Plates are then sealed and incubated at 37° C for 40 hours. Growth and color development are evaluated visually and the data is recorded with a camera.
The test compound was present in a microtiter well and overlaid with LB agar and 5-bromo-4-chloro-3-indolyl-β-D-galactose (X-gal). Both strains were spotted on the agar in each well. […] Inhibition of signaling was evaluated qualitatively by the absence or weakening of the blue color development.

[6] = system: qsc134 (Saframycin Mx1 synthetase A); assay: Acyl-HSL induction of β-galactosidase in qsc134 mutant; format: cell-based, Pseudomonas aeruginosa; conditions: qsc134, Class IV; 3OC12-HSL 2 μM, C4-HSL 5 μM
[7] = system: qsc108 (ORF 5); assay: Acyl-HSL induction of β-galactosidase in qsc108 mutant; format: cell-based, Pseudomonas aeruginosa; conditions: qsc108, Class II; 3OC12-HSL 2 μM, C4-HSL 5 μM
[8] = system: qsc129A&B (Cellulose binding protein p40); assay: Acyl-HSL induction of β-galactosidase in qsc129A&B mutants; format: cell-based, Pseudomonas aeruginosa; conditions: Class III, 3OC12-HSL 2 μM, C4-HSL 5 μM
[9] = system: qsc127; assay: Acyl-HSL induction of β-galactosidase in qsc127 mutant; format: cell-based, Pseudomonas aeruginosa; conditions: qsc127, Class III; 3OC12-HSL 2 μM, C4-HSL 5 μM
[10] = system: qsc102; assay: Acyl-HSL induction of β-galactosidase in qsc102 mutant; format: cell-based, Pseudomonas aeruginosa; conditions: for Signal response (β-galactosidase activity with signal(s) divided by activity without added signals), maximum: qsc102, Class I, 3OC12-HSL 2 μM, C4-HSL 5 μM
Description: E. coli and P. aeruginosa were routinely grown in Luria-Bertani (LB) broth or LB agar (Sambrook, et al. (1989) Molecular Cloning: a Laboratory Manual. (Cold Spring Harbor Laboratory, Cold Spring Harbor, N.Y.)), supplemented with antimicrobial agents when necessary. The antimicrobial agents were used at the following concentrations: HgCl2, 15 μg/ml in agar and 7.5 μg/ml in broth; nalidixic acid 20 μg/ml; carbenicillin, 300 μg/ml; tetracycline, 50 μg/ml for P. aeruginosa and 20 μg/ml for E. coli; and gentamicin, 100 μg/ml for P. aeruginosa and 15 μg/ml for E. coli. Synthetic acyl-HSL concentrations were 2 μM for 3OC12-HSL and 5 μM for C4-HSL, and 5-bromo4-chloro-3-indolyl-β-D-galactopyranoside (X-Gal) was used at 50 μg/ml.
Patterns of Acyl-HSL Induction of β-galactosidase Activity in qsc Mutants. The pattern of β-galactosidase expression was examined in response to acyl-HSLs in each of 47 qsc mutants identified in the initial screen. Each mutant was grown in 1 ml of MOPS (50 mM, pH 7.0) buffered LB broth containing one, the other, both, or neither acyl-HSL signal in an 18 mm culture tube at 37° C. with shaking. A mid-logarithmic phase culture was used as an inoculum and initial optical densities (ODs) at 600 nm were 0.1. Growth was monitored as OD at 600 nm and β-galactosidase activity was measured in 0.1 ml samples taken at 0, 2, 5, and 9 hours after inoculation.
One assay used the P. aeruginosa strain QSC102 (Table 3), which responds to the presence of exogenous 3-oxo-C12-HSL by inducing β-galactosidase activity up to 400-fold (Example 1). Cells were grown in the presence of a minimal concentration of 3-oxo-C12-HSL and in the presence and absence of the test compound. If the test compound interferes with signal reception, β-galactosidase activity is reduced. Interference can be a result of any of several mechanisms. The simplest is, if the test compound prevents the 3oxo-C12-HSL from binding to LasR. Alternatively, the test compound may prevent LasR from binding to DNA or interacting productively with RNA polymerase.

[11] = system: qtc136; assay: Acyl-HSL induction of β-galactosidase in qtc136 mutant; format: cell-based, Pseudomonas aeruginosa; conditions: qtc136, Class IV; 3OC12-HSL 2 μM, C4-HSL 5 μM
[12] = system: qsc104 (Polyamine binding protein); assay: Acyl-HSL induction of β-galactosidase in qsc104 mutant; format: cell-based, Pseudomonas aeruginosa; conditions: qsc104, Class I; 3OC12-HSL 2 μM, C4-HSL 5 μM
[13] = system: qsc122A&B (Cytochrome p450); conditions: Class III, 3OC12-HSL 2 μM, C4-HSL 5 μM
[14] = system: qsc113 (Trransmembrane protein); assay: Acyl-HSL induction of β-galactosidase in qsc113 mutant; format: cell-based, Pseudomonas aeruginosa; conditions: qsc113, Class II; 3OC12-HSL 2 μM, C4-HSL 5 μM
[15] = system: qsc124A&B (Pyoverdine synthetase D); assay: Acyl-HSL induction of β-galactosidase in qsc124A&B mutants; format: cell-based, Pseudomonas aeruginosa; conditions: Class III, 3OC12-HSL 2 μM, C4-HSL 5 μM
[16] = system: qsc126 (Pristanimycin I synthase 3 & 4); assay: Acyl-HSL induction of β-galactosidase in qsc126 mutant; format: cell-based, Pseudomonas aeruginosa; conditions: qsc126, Class III; 3OC12-HSL 2 μM, C4-HSL 5 μM
[17] = system: qsc133A&B (AcrB); assay: Acyl-HSL induction of β-galactosidase in qsc133A&B mutants; format: cell-based, Pseudomonas aeruginosa; conditions: Class IV, 3OC12-HSL 2 μM, C4-HSL 5 μM

| Compound | Signal response (β-galactosidase activity with signal(s) divided by activity without added signals), maximum [1] | Signal response (β-galactosidase activity with signal(s) divided by activity without added signals), maximum [2] | Signal response (β-galactosidase activity with signal(s) divided by activity without added signals), maximum [3] | Signal response (β-galactosidase activity with signal(s) divided by activity without added signals), maximum [4] | Response of the QSC102 lacZ fusion to the signal [5] | Signal response (β-galactosidase activity with signal(s) divided by activity without added signals), maximum [6] | Signal response (β-galactosidase activity with signal(s) divided by activity without added signals), maximum [7] | Signal response (β-galactosidase activity with signal(s) divided by activity without added signals), maximum [8] | Signal response (β-galactosidase activity with signal(s) divided by activity without added signals), maximum [9] | Signal response (β-galactosidase activity with signal(s) divided by activity without added signals), maximum [10] | Signal response (β-galactosidase activity with signal(s) divided by activity without added signals), maximum [11] | Signal response (β-galactosidase activity with signal(s) divided by activity without added signals), maximum [12] | Signal response (β-galactosidase activity with signal(s) divided by activity without added signals), maximum [13] | Signal response (β-galactosidase activity with signal(s) divided by activity without added signals), maximum [14] | Signal response (β-galactosidase activity with signal(s) divided by activity without added signals), maximum [15] | Signal response (β-galactosidase activity with signal(s) divided by activity without added signals), maximum [16] | Signal response (β-galactosidase activity with signal(s) divided by activity without added signals), maximum [17] | Induction of β-galactosidase activity ([10]; strain QSC102, exogenous signal) |
| --- | --- | --- | --- | --- | --- | --- | --- | --- | --- | --- | --- | --- | --- | --- | --- | --- | --- | --- |
| CCCC(=O)N[C@H]1CCOC1=O [C4-HSL, butanoyl-HSL] | 1 | 1 | 1 | 1 | did not respond | 1 | 1 | 1 | 2 | 1 | 3 | 2 | 10 | 1 | 50 | 5 | 1 |  |
| CCCCCCCCCC(=O)CC(=O)N[C@H]1CCOC1=O [3OC12-HSL, N-(3-oxododecanoyl) homoserine lactone] | 11 | 5 | 5 | 85 | responded by turning blue | 6 | 13 | 15 | 5 | 350 | 7 | 7 | 2 | 5 | 35 | 3 | 1 | up to 400 fold |
